Test results reported in ChEMBL document CHEMBL3046425, “Synthesis of Antifungal 2-Anilino-4-phenylthiazoles and Their Inhibitory Activities on Sterol Biosynthesis” (J Pestic Sci, 2001).
Converted amounts (≈) assume the structure as drawn.

How the values were obtained:
[1] = tested on: Botrytis cinerea; experiment: Antifungal activity against Botryotinia fuckeliana; assay type: functional, organism-based
[2] = tested on: Trichophyton mentagrophytes; experiment: Antifungal activity against Trichophyton mentagrophytes; assay type: functional
[3] = tested on: Pyricularia oryzae; experiment: Antifungal activity against Magnaporthe oryzae; assay type: functional, organism-based
[4] = tested on: Botrytis cinerea; experiment: Antifungal activity against Botryotinia fuckeliana assessed as accumulation of squalene using [2-14C]acetate at 3 x 10^-5 M; assay type: functional
[5] = tested on: Botrytis cinerea; experiment: Antifungal activity against Botryotinia fuckeliana assessed as accumulation of squalene using [2-14C]acetate at 1 x 10^-5 M; assay type: functional
[6] = tested on: Trichophyton mentagrophytes; experiment: Antifungal activity against Trichophyton mentagrophytes assessed as accumulation of squalene using [2-14C]acetate at 1 x 10^-8 M; assay type: functional
[7] = tested on: Trichophyton mentagrophytes; experiment: Antifungal activity against Trichophyton mentagrophytes assessed as accumulation of squalene using [2-14C]acetate at 1 x 10^-9 M; assay type: functional
[8] = tested on: Botrytis cinerea; experiment: Antifungal activity against Botryotinia fuckeliana assessed as accumulation of squalene using [2-14C]acetate at 1 x 10^-7 M; assay type: functional
[9] = target: T1, Squalene epoxidase ERG1 (Saccharomyces cerevisiae S288c) (UniProt P32476); experiment: Inhibition of squalene epoxidase in Saccharomyces cerevisiae IFO 1346 assessed as incorporation of [2-14C]mevalonate into squalene at 1 x 10^-5 M after 3 hr; set-up: scale not given: the % may be the effect or the level left
T1 sequence (whole entry): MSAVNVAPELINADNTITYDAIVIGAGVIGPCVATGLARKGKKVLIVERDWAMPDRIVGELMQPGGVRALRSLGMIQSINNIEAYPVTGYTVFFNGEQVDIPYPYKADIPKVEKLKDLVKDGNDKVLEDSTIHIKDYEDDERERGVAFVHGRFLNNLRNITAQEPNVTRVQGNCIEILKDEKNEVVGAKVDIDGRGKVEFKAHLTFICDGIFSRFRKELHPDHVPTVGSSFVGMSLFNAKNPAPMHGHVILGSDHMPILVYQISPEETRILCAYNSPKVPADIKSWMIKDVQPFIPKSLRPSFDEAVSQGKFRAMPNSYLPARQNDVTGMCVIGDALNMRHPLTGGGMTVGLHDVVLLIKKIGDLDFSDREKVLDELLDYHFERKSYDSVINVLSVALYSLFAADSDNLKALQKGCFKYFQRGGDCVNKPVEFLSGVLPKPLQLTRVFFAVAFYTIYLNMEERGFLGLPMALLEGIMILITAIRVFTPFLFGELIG

[10] = tested on: Trichophyton mentagrophytes; experiment: Antifungal activity against Trichophyton mentagrophytes assessed as accumulation of squalene using [2-14C]acetate at 1 x 10^-7 M; assay type: functional
[11] = tested on: Botrytis cinerea; experiment: Antifungal activity against Botryotinia fuckeliana assessed as accumulation of squalene using [2-14C]acetate at 1 x 10^-6 M; assay type: functional
[12] = target: T1, Squalene epoxidase ERG1 (Saccharomyces cerevisiae S288c); experiment: Inhibition of squalene epoxidase in Saccharomyces cerevisiae IFO 1346 assessed as incorporation of [2-14C]mevalonate into 4-desmethyl sterols at 1 x 10^-5 M after 3 hr; set-up: scale not given: the % may be the effect or the level left
[13] = target: T1, Squalene epoxidase ERG1 (Saccharomyces cerevisiae S288c); experiment: Inhibition of squalene epoxidase in Saccharomyces cerevisiae IFO 1346 assessed as incorporation of [2-14C]mevalonate into 4alpha-methyl sterols at 1 x 10^-4 M after 3 hr; set-up: scale not given: the % may be the effect or the level left
[14] = target: T1, Squalene epoxidase ERG1 (Saccharomyces cerevisiae S288c); experiment: Inhibition of squalene epoxidase in Saccharomyces cerevisiae IFO 1346 assessed as incorporation of [2-14C]mevalonate into 4-desmethyl sterols at 1 x 10^-4 M after 3 hr; set-up: scale not given: the % may be the effect or the level left
[15] = target: T1, Squalene epoxidase ERG1 (Saccharomyces cerevisiae S288c); experiment: Inhibition of squalene epoxidase in Saccharomyces cerevisiae IFO 1346 assessed as incorporation of [2-14C]mevalonate into 2,3-oxidosqualene at 1 x 10^-5 M after 3 hr; set-up: scale not given: the % may be the effect or the level left
[16] = target: T1, Squalene epoxidase ERG1 (Saccharomyces cerevisiae S288c); experiment: Inhibition of squalene epoxidase in Saccharomyces cerevisiae IFO 1346 assessed as incorporation of [2-14C]mevalonate into 4,4-dimethyl sterols at 1 x 10^-4 M after 3 hr; set-up: scale not given: the % may be the effect or the level left
[17] = target: T1, Squalene epoxidase ERG1 (Saccharomyces cerevisiae S288c); experiment: Inhibition of squalene epoxidase in Saccharomyces cerevisiae IFO 1346 assessed as incorporation of [2-14C]mevalonate into 4alpha-methyl sterols at 1 x 10^-5 M after 3 hr; set-up: scale not given: the % may be the effect or the level left
[18] = target: T1, Squalene epoxidase ERG1 (Saccharomyces cerevisiae S288c); experiment: Inhibition of squalene epoxidase in Saccharomyces cerevisiae IFO 1346 assessed as incorporation of [2-14C]mevalonate into squalene at 1 x 10^-4 M after 3 hr; set-up: scale not given: the % may be the effect or the level left
[19] = target: T1, Squalene epoxidase ERG1 (Saccharomyces cerevisiae S288c); experiment: Inhibition of squalene epoxidase in Saccharomyces cerevisiae IFO 1346 assessed as incorporation of [2-14C]mevalonate into 4,4-dimethyl sterols at 1 x 10^-5 M after 3 hr; set-up: scale not given: the % may be the effect or the level left
[20] = target: T1, Squalene epoxidase ERG1 (Saccharomyces cerevisiae S288c); experiment: Inhibition of squalene epoxidase in Saccharomyces cerevisiae IFO 1346 assessed as incorporation of [2-14C]mevalonate into 2,3-oxidosqualene at 1 x 10^-4 M after 3 hr; set-up: scale not given: the % may be the effect or the level left

Row | SMILES | EC50 [1] [µg/mL] | MIC [2] [µg/mL] | EC50 [3] [µg/mL] | also measured
1 | Clc1ccc(Nc2nc(-c3cccc(Cl)c3Cl)cs2)cc1 | > 100 | 3 (≈ 8.43 µM) | > 100 | 
2 | Fc1ccc(Nc2nc(-c3c(Cl)cccc3Cl)cs2)cc1 | 0.2 (≈ 0.59 µM) | 0.1 (≈ 0.295 µM) | 3 (≈ 8.84 µM) | 
3 | Clc1ccc(Nc2nc(-c3ccccc3)cs2)cc1 | > 100 | 3 (≈ 10.5 µM) | 1 (≈ 3.49 µM) | Activity [4]: 14.3%; Activity [5]: 2%
4 | FC(F)(F)c1ccc(Nc2nc(-c3c(Cl)cccc3Cl)cs2)cc1 | 0.3 (≈ 0.771 µM) | 0.03 (≈ 0.0771 µM) | 0.3 (≈ 0.771 µM) | 
5 | Clc1ccc(Nc2nc(-c3c(Cl)cccc3Cl)cs2)cc1Cl | 1 (≈ 2.56 µM) | 0.1 (≈ 0.256 µM) | 1 (≈ 2.56 µM) | 
6 | CC(C)c1ccc(Nc2nc(-c3c(Cl)cccc3Cl)cs2)cc1 | > 100 | 0.3 (≈ 0.826 µM) | 2 (≈ 5.5 µM) | 
7 | CC(C)(C)c1ccc(Nc2nc(-c3c(Cl)cccc3Cl)cs2)cc1 | > 100 | > 100 | 1 (≈ 2.65 µM) | 
8 | Clc1ccc(Nc2nc(-c3c(Cl)cccc3Cl)ns2)cc1 | 0.2 (≈ 0.561 µM) | 0.1 (≈ 0.28 µM) | 0.6 (≈ 1.68 µM) | 
9 | Clc1ccc(Nc2nc(-c3c(Cl)cccc3Cl)cs2)cc1 | 0.05 (≈ 0.141 µM) | 0.03 (≈ 0.0843 µM) | 0.4 (≈ 1.12 µM) | Activity [6]: 67.4%; Activity [7]: 28.5%; Activity [8]: 7.5%; Activity [9]: 44.9%; Activity [5]: 86.7%; Activity [10]: 85.8%; Activity [11]: 72.5%; Activity [12]: 47.2%; Activity [13]: 0.7%; Activity [14]: 15.3%; Activity [15]: 3.6%; Activity [16]: 0.9%; Activity [17]: 1.7%; Activity [18]: 80.3%; Activity [19]: 1.5%; Activity [20]: 1.9%
10 | Cc1cccc(C)c1-c1csc(Nc2ccc(Cl)cc2)n1 | 0.05 (≈ 0.159 µM) | 0.1 (≈ 0.318 µM) | 10 (≈ 31.8 µM) | 
11 | Clc1cccc(Cl)c1-c1csc(Nc2ccccc2)n1 | > 100 | 1 (≈ 3.11 µM) | 2 (≈ 6.23 µM) | 
12 | Fc1cccc(F)c1-c1csc(Nc2ccc(Cl)cc2)n1 | > 100 | 0.3 (≈ 0.929 µM) | 1 (≈ 3.1 µM) | 
13 | Clc1ccc(Nc2nc(-c3cccc4ccccc34)cs2)cc1 | 0.3 (≈ 0.891 µM) | 0.1 (≈ 0.297 µM) | 2 (≈ 5.94 µM) | Activity [6]: 11.7%; Activity [7]: 25.3%; Activity [10]: 83.1%
14 | CSc1ccc(Nc2nc(-c3c(Cl)cccc3Cl)cs2)cc1 | 0.3 (≈ 0.817 µM) | 0.1 (≈ 0.272 µM) | 4 (≈ 10.9 µM) | 
15 | Clc1ccc(Cc2nc(-c3c(Cl)cccc3Cl)cs2)cc1 | > 100 | > 100 | > 100 | Activity [5]: 3.8%
16 | COc1ccc(Nc2nc(-c3c(Cl)cccc3Cl)cs2)cc1 | > 100 | 0.1 (≈ 0.285 µM) | 10 (≈ 28.5 µM) | 
17 | Clc1ccc(Oc2nc(-c3c(Cl)cccc3Cl)cs2)cc1 | 0.5 (≈ 1.4 µM) | 1 (≈ 2.8 µM) | 1 (≈ 2.8 µM) | Activity [4]: 68%; Activity [5]: 61.1%
18 | Clc1cccc(Cl)c1-c1csc(Nc2ccc(I)cc2)n1 | 0.2 (≈ 0.447 µM) | 0.03 (≈ 0.0671 µM) | 0.3 (≈ 0.671 µM) | 
19 | Clc1ccc(Nc2nc(-c3ccc4ccccc4c3)cs2)cc1 | > 100 | > 100 | > 100 | Activity [7]: >35%; Activity [10]: 38.7%
20 | Clc1ccc(Nc2nc(-c3c(Cl)cc(Cl)cc3Cl)cs2)cc1 | 0.05 (≈ 0.128 µM) | 0.1 (≈ 0.256 µM) | 0.3 (≈ 0.769 µM) | 

Row | SMILES | EC50 [1] [µg/mL] | MIC [2] [µg/mL] | EC50 [3] [µg/mL] | also measured
21 | CN(C)c1ccc(Nc2nc(-c3c(Cl)cccc3Cl)cs2)cc1 | > 100 | 1 (≈ 2.74 µM) | > 100 | 
22 | Clc1ccc(Nc2nc(-c3c(Cl)cccc3Cl)cs2)c(Cl)c1 | > 100 | 0.3 (≈ 0.769 µM) | 5 (≈ 12.8 µM) | 
23 | C[S+]([O-])c1ccc(Nc2nc(-c3c(Cl)cccc3Cl)cs2)cc1 (stereo not drawn) | > 100 | 30 (≈ 78.3 µM) | 2 (≈ 5.22 µM) | 
24 | CC(C)Oc1ccc(Nc2nc(-c3c(Cl)cccc3Cl)cs2)cc1 | > 100 | 30 (≈ 79.1 µM) | 3 (≈ 7.91 µM) | 
25 | Clc1ccc(Nc2nc(-c3cccc(Cl)c3)cs2)cc1 | > 100 | 3 (≈ 9.34 µM) | 0.3 (≈ 0.934 µM) | Activity [4]: 1.7%
26 | COc1cccc(OC)c1-c1csc(Nc2ccc(Cl)cc2)n1 | 0.2 (≈ 0.577 µM) | 0.03 (≈ 0.0865 µM) | 5 (≈ 14.4 µM) | Activity [6]: 70.6%; Activity [7]: 30.5%; Activity [8]: 2.3%; Activity [5]: 79.8%; Activity [10]: 84.1%; Activity [11]: 46.9%
27 | CS(=O)(=O)c1ccc(Nc2nc(-c3c(Cl)cccc3Cl)cs2)cc1 | > 100 | 3 (≈ 7.51 µM) | 3 (≈ 7.51 µM) | 
28 | COc1ccc(Br)c(OC)c1-c1csc(Nc2ccc(Cl)cc2)n1 | > 100 | 3 (≈ 7.05 µM) | 0.5 (≈ 1.17 µM) | 
29 | Clc1ccc(Nc2nc(-c3ccccc3Cl)cs2)cc1 | > 100 | 0.3 (≈ 0.934 µM) | 0.3 (≈ 0.934 µM) | Activity [4]: 46.3%; Activity [5]: 28.8%
30 | Clc1cccc(Nc2nc(-c3c(Cl)cccc3Cl)cs2)c1 | > 100 | 0.1 (≈ 0.281 µM) | 10 (≈ 28.1 µM) | Activity [5]: 4%
31 | FC(F)(F)Oc1ccc(Nc2nc(-c3c(Cl)cccc3Cl)cs2)cc1 | 0.5 (≈ 1.23 µM) | 0.03 (≈ 0.074 µM) | 0.3 (≈ 0.74 µM) | 
32 | CCCOC/C(=N\c1ccc(Cl)cc1C(F)(F)F)n1ccnc1 |  |  |  | Activity [9]: 19.3%; Activity [12]: 12.6%; Activity [15]: 2.9%; Activity [17]: 10.3%; Activity [19]: 54%
33 | Clc1ccc(Nc2nc(-c3ccc(Cl)cc3)cs2)cc1 | > 100 | > 100 | 0.3 (≈ 0.934 µM) | Activity [4]: 8.4%
34 | Clc1cccc(Cl)c1-c1csc(Nc2ccc(Br)cc2)n1 | 0.05 (≈ 0.125 µM) | 0.03 (≈ 0.075 µM) | 0.5 (≈ 1.25 µM) | 
35 | Fc1cc(Cl)ccc1Nc1nc(-c2c(Cl)cccc2Cl)cs1 | 0.1 (≈ 0.268 µM) | 0.1 (≈ 0.268 µM) | 0.5 (≈ 1.34 µM) | 
36 | Cc1cccc(N(C)C(=S)Oc2ccc3ccccc3c2)c1 [TOLNAFTATE] |  |  |  | Activity [6]: 72.1%; Activity [7]: 74.2%; Activity [8]: 10%; Activity [9]: 49%; Activity [5]: 79%; Activity [10]: 81.5%; Activity [11]: 66%; Activity [12]: 43.6%; Activity [15]: 3.5%; Activity [17]: 1.2%; Activity [19]: 1.9%
37 | CN(c1ccc(Cl)cc1)c1nc(-c2c(Cl)cccc2Cl)cs1 | > 100 | 3 (≈ 8.11 µM) | 1 (≈ 2.7 µM) | Activity [4]: 2%
38 | O=[N+]([O-])c1ccc(Nc2nc(-c3c(Cl)cccc3Cl)cs2)cc1 | > 100 | 30 (≈ 81.9 µM) | > 100 | 
39 | CCCc1ccc(Nc2nc(-c3c(Cl)cccc3Cl)cs2)cc1 | > 100 | 0.1 (≈ 0.275 µM) | 30 (≈ 82.6 µM) | 
40 | Cc1ccc(Nc2nc(-c3c(Cl)cccc3Cl)cs2)cc1 | 0.3 (≈ 0.895 µM) | 0.1 (≈ 0.298 µM) | 3 (≈ 8.95 µM) | 
